Measured values from patent publication US20250353841A1 (BIOGEN MA INC., priority 2022, published 2025).

Test system: mutant Huntington (HTT) protein
Test: HTT Mutant HTRF iPSC assay (mHTT protein lowering)
Format: cell-based
Conditions: human iPSC derived from a HTT patient with a poly-Q49 mutation

| SMILES | IC50 |
| --- | --- |
| CCC(=O)N1CCC(c2cn3cc(-c4cc(C)c5nc(C)cn5n4)cc(F)c3n2)CC1 [Compound 120, 1-[4-[6-(2,8-dimethylimidazo[1,2-b]pyridazin-6-yl)-8-fluoro-imidazo[1,2-a]pyridin-2-yl]-1-piperidyl]propan-1-one] | 100 to 1000 nM |
| Cc1cn2nc(-c3cc(F)c4nc(C5CCN(C(=O)C6CC6)CC5)cn4c3)cc(C)c2n1 [Compound 121, cyclopropyl(4-(6-(2,8-dimethylimidazo[1,2-b]pyridazin-6-yl)-8-fluoroimidazo[1,2-a]pyridin-2-yl)piperidin-1-yl)methanone] | 100 to 1000 nM |
| Fc1ccc2nc(-c3cc(F)c4nc(C5CCNCC5)cn4c3)cn2c1 [Compound 122, 6,8′-difluoro-2′-(piperidin-4-yl)-2,6′-biimidazo[1,2-a]pyridine] | 1000 to 9000 nM |
| Cc1nc2c(C)cc(-c3cc(F)c4nc(C5CCNCC5)cn4c3)cn2n1 [Compound 123, 6-(8-fluoro-2-(piperidin-4-yl)imidazo[1,2-a]pyridin-6-yl)-2,8-dimethyl-[1,2,4]triazolo[1,5-a]pyridine] | 100 to 1000 nM |
| Fc1cc(F)c2nc(-c3cc(F)c4nc(C5CCNCC5)cn4c3)oc2c1 [Compound 124, 4,6-difluoro-2-(8-fluoro-2-(piperidin-4-yl)imidazo[1,2-a]pyridin-6-yl)benzo[d]oxazole] | 1000 to 9000 nM |
| Cc1cn2cc(-c3cc(F)c4nc(C5CCNCC5)cn4c3)nc(C)c2n1 [Compound 125, 6-(8-fluoro-2-(piperidin-4-yl)imidazo[1,2-a]pyridin-6-yl)-2,8-dimethylimidazo[1,2-a]pyrazine] | 100 to 1000 nM |
| Cc1cn2nc(-c3cc(F)c4nc(C5CCNCC5)c(Cl)n4c3)ccc2n1 [Compound 126, 6-[3-chloro-8-fluoro-2-(4-piperidyl)imidazo[1,2-a]pyridin-6-yl]-2-methyl-imidazo[1,2-b]pyridazine] | < 100 nM |
| Cc1cn2nc(-c3cc(F)c4nc(N5CCNCC5)cn4c3)cc(C)c2n1 [Compound 127, 6-(8-fluoro-2-piperazin-1-yl-imidazo[1,2-a]pyridin-6-yl)-2,8-dimethyl-imidazo[1,2-b]pyridazine] | 1000 to 9000 nM |
| CN1CCC(N(C)C(=O)c2cn3cc(-c4cc(F)c5nn(C)cc5c4)cc(F)c3n2)CC1 [Compound 129, 8-fluoro-6-(7-fluoro-2-methyl-indazol-5-yl)-N-methyl-N-(1-methyl-4-piperidyl)imidazo[1,2-a]pyridine-2-carboxamide] | 1000 to 9000 nM |
| Cc1cn2nc(-c3cn4cc(C5CC6CCC(C5)N6)cc(F)c4n3)cc(C)c2n1 (stereo not shown) [Compound 130] | 1000 to 9000 nM |
| Cc1cn2nc(-c3cn4cc(C5CCNCC5)cc(F)c4n3)cc(C)c2n1 [Compound 131, 6-(8-fluoro-6-(piperidin-4-yl)imidazo[1,2-a]pyridin-2-yl)-2,8-dimethylimidazo[1,2-b]pyridazine] | 100 to 1000 nM |
| CCN1CCC(c2cc(F)c3nc(-c4cc(C)c5nc(C)cn5n4)cn3c2)CC1 [Compound 132] | 1000 to 9000 nM |
| Cc1cn2nc(-c3cn4cc(C5CCN(C)CC5)cc(F)c4n3)cc(C)c2n1 [Compound 133, 6-[8-fluoro-6-(1-methyl-4-piperidyl)imidazo[1,2-a]pyridin-2-yl]-2,8-dimethyl-imidazo[1,2-b]pyridazine] | 1000 to 9000 nM |
| Cc1cn2nc(-c3cn4cc(C5CCCNC5)cc(F)c4n3)cc(C)c2n1 (stereo not shown) [Compound 134, 6-(8-fluoro-6-(piperidin-3-yl)imidazo[1,2-a]pyridin-2-yl)-2,8-dimethylimidazo[1,2-b]pyridazine] | 1000 to 9000 nM |
| Cc1cn2nc(-c3cc(F)c4cn(C5CCNCC5)nc4c3)cc(C)c2n1 [Compound 135, 6-(4-fluoro-2-(piperidin-4-yl)-2H-indazol-6-yl)-2,8-dimethylimidazo[1,2-b]pyridazine] | 100 to 1000 nM |
| Cc1cn2cc(-c3cc(F)c4nn(C5CCNCC5)cc4c3)cc(F)c2n1 [Compound 136, 7-fluoro-5-(8-fluoro-2-methylimidazo[1,2-a]pyridin-6-yl)-2-(piperidin-4-yl)-2H-indazole] | 100 to 1000 nM |
| Cc1cn2cc(-c3cc(F)c4nn(C5CCNCC5)nc4c3)cc(F)c2n1 [Compound 137, 4-fluoro-6-(8-fluoro-2-methylimidazo[1,2-a]pyridin-6-yl)-2-(piperidin-4-yl)-2H-benzo[d][1,2,3]triazole] | 100 to 1000 nM |
| Cn1cc2cc(-c3cc(F)c4nn(C5CCNCC5)nc4c3)cc(F)c2n1 [Compound 138, 4-fluoro-6-(7-fluoro-2-methyl-2H-indazol-5-yl)-2-(piperidin-4-yl)-2H-benzo[d][1,2,3]triazole] | 100 to 1000 nM |
| Cc1cn2nc(-c3cc(F)c4nn(C5CCNCC5)nc4c3)cc(C)c2n1 [Compound 139, 6-(2,8-dimethylimidazo[1,2-b]pyridazin-6-yl)-4-fluoro-2-(piperidin-4-yl)-2H-benzo[d][1,2,3]triazole] | < 100 nM |
| Cc1cn2nc(-c3cc(F)c4[nH]c(C5CCNCC5)nc4c3)cc(C)c2n1 [Compound 140, 6-(7-fluoro-2-(piperidin-4-yl)-1H-benzo[d]imidazol-5-yl)-2,8-dimethylimidazo[1,2-b]pyridazine] | < 100 nM |

| SMILES | IC50 |
| --- | --- |
| Cn1cc2cc(-c3cc(F)c4[nH]c(C5CCNCC5)nc4c3)cc(F)c2n1 [Compound 141, 7-fluoro-5-(7-fluoro-2-(piperidin-4-yl)-1H-benzo[d]imidazol-5-yl)-2-methyl-2H-indazole] | 1000 to 9000 nM |
| Cc1cc(-c2cc(F)c3[nH]c(C4CCNCC4)nc3c2)cc2cn(C)nc12 [Compound 142, 5-(7-fluoro-2-(piperidin-4-yl)-1H-benzo[d]imidazol-5-yl)-2,7-dimethyl-2H-indazole] | 1000 to 9000 nM |
| Cc1cn2cc(-c3cc(F)c4[nH]c(C5CCNCC5)nc4c3)cc(F)c2n1 [Compound 143, 7-fluoro-5-(8-fluoro-2-methylimidazo[1,2-a]pyridin-6-yl)-2-(piperidin-4-yl)-1H-benzo[d]imidazole] | 1000 to 9000 nM |
| Cc1cn2cc(-c3cc(F)c4[nH]c(C5CCNCC5)nc4c3)cc(Cl)c2n1 [Compound 144, 5-(8-chloro-2-methylimidazo[1,2-a]pyridin-6-yl)-7-fluoro-2-(piperidin-4-yl)-1H-benzo[d]imidazole] | 1000 to 9000 nM |
| Cc1cn2cc(-c3cc(F)c4[nH]c(C5CCNCC5)nc4c3)cc2c(C)n1 [Compound 145, 5-(1,3-dimethylpyrrolo[1,2-a]pyrazin-7-yl)-7-fluoro-2-(piperidin-4-yl)-1H-benzo[d]imidazole] | 1000 to 9000 nM |
| Cn1nc2ccc(-c3cc(F)c4[nH]c(C5CCNCC5)nc4c3)cc2n1 [Compound 146, 5-(7-fluoro-2-(piperidin-4-yl)-1H-benzo[d]imidazol-5-yl)-2-methyl-2H-benzo[d][1,2,3]triazole] | 1000 to 9000 nM |
| Cc1cn2cc(-c3cc(F)c4[nH]c(C5CCNCC5)nc4c3)cc(C)c2n1 [Compound 147, 5-(2,8-dimethylimidazo[1,2-a]pyridin-6-yl)-7-fluoro-2-(piperidin-4-yl)-1H-benzo[d]imidazole] | 1000 to 9000 nM |
| Cn1nc2cc(-c3cc(F)c4[nH]c(C5CCNCC5)nc4c3)cc(F)c2n1 [Compound 148, 4-fluoro-6-(7-fluoro-2-(piperidin-4-yl)-1H-benzo[d]imidazol-5-yl)-2-methyl-2H-benzo[d][1,2,3]triazole] | 100 to 1000 nM |
| Cc1nc2c(F)cc(-c3cc(F)c4[nH]c(C5CCNCC5)nc4c3)cn2n1 [Compound 149, 8-fluoro-6-(7-fluoro-2-(piperidin-4-yl)-1H-benzo[d]imidazol-5-yl)-2-methyl-[1,2,4]triazolo[1,5-a]pyridine] | 1000 to 9000 nM |
| Cc1cn2nc(-c3cc(F)c4nc(C5CCNCC5)nn4c3)cc(C)c2n1 [Compound 150, 6-(2,8-dimethylimidazo[1,2-b]pyridazin-6-yl)-8-fluoro-2-(4-piperidyl)-[1,2,4]triazolo[1,5-a]pyridine] | < 100 nM |
| Cc1cn2cc(-c3cc(F)c4nc(C5CCNCC5)nn4c3)cc(F)c2n1 [Compound 151, 8-fluoro-6-(8-fluoro-2-methylimidazo[1,2-a]pyridin-6-yl)-2-(piperidin-4-yl)-[1,2,4]triazolo[1,5-a]pyridine] | 1000 to 9000 nM |
| CCc1nc(C)cn2cc(-c3cc(F)c4nc(C5CCNCC5)nn4c3)cc12 [Compound 152] | < 100 nM |
| Cc1cn2nc(-c3cc(F)c4nc(C5CCNCC5)cn4c3)cc(C(F)F)c2n1 [Compound 153, 8-(difluoromethyl)-6-(8-fluoro-2-(piperidin-4-yl)imidazo[1,2-a]pyridin-6-yl)-2-methylimidazo[1,2-b]pyridazine] | < 100 nM |
| Cc1cn2nc(-c3cc(F)c4nc(C5CCNCC5)oc4c3)cc(C)c2n1 [Compound 154, 6-(2,8-dimethylimidazo[1,2-b]pyridazin-6-yl)-4-fluoro-2-(4-piperidyl)-1,3-benzoxazole] | < 100 nM |
| Cc1cn2cc(-c3cc(F)c4nc(C5CCNCC5)oc4c3)cc(C)c2n1 [Compound 155, 6-(2,8-dimethylimidazo[1,2-a]pyridin-6-yl)-4-fluoro-2-(piperidin-4-yl)benzo[d]oxazole] | 1000 to 9000 nM |
| Cc1cn2cc(-c3cc(F)c4nc(C5CCNCC5)oc4c3)cc(F)c2n1 [Compound 156, 4-fluoro-6-(8-fluoro-2-methylimidazo[1,2-a]pyridin-6-yl)-2-(piperidin-4-yl)benzo[d]oxazole] | 1000 to 9000 nM |
| Cc1cc(-c2cc(F)c3nc(C4CCNCC4)oc3c2)cc2cn(C)nc12 [Compound 157, 6-(2,7-dimethyl-2H-indazol-5-yl)-4-fluoro-2-(piperidin-4-yl)benzo[d]oxazole] | 100 to 1000 nM |
| Cc1cn2nc(-c3cc(F)c4nc(C5(F)CCNCC5)cn4c3)cc(C)c2n1 [Compound 158, 6-(8-fluoro-2-(4-fluoropiperidin-4-yl)imidazo[1,2-a]pyridin-6-yl)-2,8-dimethylimidazo[1,2-b]pyridazine] | < 100 nM |
| Cc1cn2nc(-c3cc(F)c4nc(C56CNC(C5)C6)cn4c3)cc(C)c2n1 [Compound 159] | 100 to 1000 nM |
| Cc1cn2nc(-c3cc(F)c4nc(C5CCNC5)cn4c3)cc(C)c2n1 (stereo not shown) [Compound 160, 6-(8-fluoro-2-(pyrrolidin-3-yl)imidazo[1,2-a]pyridin-6-yl)-2,8-dimethylimidazo[1,2-b]pyridazine] | < 100 nM |
